The conditions of the series: for aqueous solubility: pH 6.8.

≈ marks a conversion by molar mass, not a printed value.

For the molecule `COc1cc(C)cc(OC)c1-c1ccc(-c2nn[nH]n2)cc1`, the MDR1-MDCK efflux ratio was 1.97; the intrinsic clearance, human liver microsomes is at most 4.74 mL/min/kg; the intrinsic clearance, rat liver microsomes came out at 83.2 mL/min/kg.

Take `CN(Cc1cnc2ccccc2n1)S(=O)(=O)N1CCCC1`: the MDR1-MDCK efflux ratio stood at 0.702; the intrinsic clearance, human liver microsomes turned out to be 13.3 mL/min/kg; the intrinsic clearance, rat liver microsomes amounted to 1600 mL/min/kg.

`Cc1ccc(/C(N)=N/OC(=O)c2ccc3c(c2)OCCO3)cc1` registered an aqueous solubility of 0.33 µg/mL (≈ 1.06 µM).

For the molecule `O=C(CCc1nnc(-c2ccsc2)o1)N1CCCc2cc(F)c(F)cc21`, the MDR1-MDCK efflux ratio amounted to 0.866; the intrinsic clearance, human liver microsomes worked out at 108 mL/min/kg; the intrinsic clearance, rat liver microsomes came out at 1980 mL/min/kg; the aqueous solubility came out at 2.08 µg/mL (≈ 5.54 µM).

Regarding `COc1cc2cc(N)c(C3CCNCC3)nc2cc1OC`, the intrinsic clearance, human liver microsomes was at most 4.74 mL/min/kg and the intrinsic clearance, rat liver microsomes was at most 10.7 mL/min/kg.

In the case of `c1ccc(Cc2nnc(NC3CCOCC3)s2)cc1`, the MDR1-MDCK efflux ratio came to 1.23; the intrinsic clearance, human liver microsomes is at most 4.74 mL/min/kg; the intrinsic clearance, rat liver microsomes worked out at 20.6 mL/min/kg; the aqueous solubility came to 34 µg/mL (≈ 123 µM).

Take `COc1cc2c(cc1OC)-c1cc3ccc(OC)c(OC)c3c[n+]1CC2`: the MDR1-MDCK efflux ratio amounted to 22.5; the intrinsic clearance, human liver microsomes was at most 4.74 mL/min/kg; the intrinsic clearance, rat liver microsomes worked out at 23.4 mL/min/kg; the aqueous solubility came to 54.1 µg/mL.

As to `CCN(CC)C(=O)CSCc1cncc(F)c1`, the MDR1-MDCK efflux ratio was 0.711; the intrinsic clearance, human liver microsomes worked out at 31.2 mL/min/kg; the intrinsic clearance, rat liver microsomes worked out at 835 mL/min/kg.

For the molecule `N#Cc1ccc(COc2cnc3ccccc3n2)cc1`, the MDR1-MDCK efflux ratio turned out to be 0.507 and the aqueous solubility is 0.19 µg/mL (≈ 0.727 µM).

In the case of `CC(C)CN(Cc1cnn(C)c1)C(=O)c1cccc(-c2cnccn2)c1`, the MDR1-MDCK efflux ratio is 7.22; the intrinsic clearance, human liver microsomes was found to be 448 mL/min/kg; the intrinsic clearance, rat liver microsomes amounted to 4750 mL/min/kg.

In the case of `Cc1cc(C(=O)NC2CCN(c3nc(-c4cccs4)nc4ccccc34)CC2)on1`, the MDR1-MDCK efflux ratio was 0.753 and the aqueous solubility was determined as 0.96 µg/mL (≈ 2.29 µM).

Take `CC(=O)N(C)[C@H]1CC2(CCN(C(=O)COc3ccc(F)cc3F)CC2)OC[C@]1(C)O`: the MDR1-MDCK efflux ratio is 14.9; the intrinsic clearance, human liver microsomes was at most 4.74 mL/min/kg; the intrinsic clearance, rat liver microsomes is 15.4 mL/min/kg.

As to `CN(C)S(=O)(=O)CCCN1CCc2ccccc2CC1`, the MDR1-MDCK efflux ratio was determined as 0.6; the intrinsic clearance, human liver microsomes is 15.9 mL/min/kg; the intrinsic clearance, rat liver microsomes was determined as 716 mL/min/kg.

For `CC(C)C(=O)N1CCC(Nc2ncnc3ccsc23)CC1`, the MDR1-MDCK efflux ratio amounted to 6.55; the intrinsic clearance, human liver microsomes was at most 4.74 mL/min/kg; the intrinsic clearance, rat liver microsomes came to 19.2 mL/min/kg; the aqueous solubility stood at 48 µg/mL (≈ 158 µM).

`COc1ccccc1NC(=O)CN1CCCN(c2nc(C)cs2)CC1`: the MDR1-MDCK efflux ratio came to 0.716; the intrinsic clearance, human liver microsomes stood at 359 mL/min/kg; the intrinsic clearance, rat liver microsomes is 1950 mL/min/kg; the aqueous solubility amounted to 55.5 µg/mL (≈ 154 µM).

As for `CCOc1ncccc1-c1nc(C)cc(NC)n1`, the MDR1-MDCK efflux ratio worked out at 0.672; the intrinsic clearance, human liver microsomes was at most 4.74 mL/min/kg; the intrinsic clearance, rat liver microsomes was found to be 26.1 mL/min/kg; the aqueous solubility worked out at 36.4 µg/mL (≈ 149 µM).

With `COC(c1ccccc1)(c1ccccc1)[C@H](Oc1nc(C)cc(C)n1)C(=O)O`, the MDR1-MDCK efflux ratio came out at 38.3; the intrinsic clearance, human liver microsomes was at most 4.74 mL/min/kg; the intrinsic clearance, rat liver microsomes was at most 10.7 mL/min/kg.

In the case of `O=C(O)c1ccc(=O)n(CCc2c[nH]c3ccccc23)c1`, the MDR1-MDCK efflux ratio is 2.39; the intrinsic clearance, human liver microsomes is at most 4.74 mL/min/kg; the intrinsic clearance, rat liver microsomes is at most 10.7 mL/min/kg; the aqueous solubility came to 42.4 µg/mL (≈ 150 µM).

Take `Cc1cc(N2CCN(CC3CCN(C(=O)CC(C)C)CC3)CC2)n[nH]1`: the MDR1-MDCK efflux ratio was 9.48; the intrinsic clearance, human liver microsomes came out at 7.34 mL/min/kg; the intrinsic clearance, rat liver microsomes was at most 10.7 mL/min/kg.

The molecule `Cc1ccc(S(=O)(=O)N2CCCc3ccc(NS(=O)(=O)c4cc(F)ccc4F)cc32)cc1` came in with an intrinsic clearance, human liver microsomes of 244 mL/min/kg and an intrinsic clearance, rat liver microsomes of 2260 mL/min/kg.

For `Cc1nc(-c2ccc(S(=O)(=O)N(C)C)cc2)cc(C(C)C)n1`, the MDR1-MDCK efflux ratio is 0.669; the intrinsic clearance, human liver microsomes worked out at 34.6 mL/min/kg; the intrinsic clearance, rat liver microsomes turned out to be 2230 mL/min/kg.

As for `CCOC(=O)C1CCN(C(=O)c2cc3occc3c(Nc3ccc(F)cc3)n2)CC1`, the MDR1-MDCK efflux ratio worked out at 1.32 and the aqueous solubility amounted to 0.88 µg/mL (≈ 2.14 µM).

Consider `COc1ccccc1-c1nn(-c2ccccc2)cc1CO`, for which the MDR1-MDCK efflux ratio turned out to be 0.418; the intrinsic clearance, human liver microsomes was 42.1 mL/min/kg; the intrinsic clearance, rat liver microsomes was found to be 374 mL/min/kg; the aqueous solubility is 19.7 µg/mL (≈ 70.4 µM).

With `COCCc1noc(CN(C)C(=O)c2ccc3c(c2)CCC3)n1`, the MDR1-MDCK efflux ratio turned out to be 0.812; the intrinsic clearance, human liver microsomes is 10.4 mL/min/kg; the intrinsic clearance, rat liver microsomes amounted to 263 mL/min/kg.

For `O=C(CCNc1ncccn1)N1CCc2ccccc2C1`, the MDR1-MDCK efflux ratio worked out at 1.23; the intrinsic clearance, human liver microsomes came to 24.8 mL/min/kg; the intrinsic clearance, rat liver microsomes was determined as 146 mL/min/kg; the aqueous solubility is 35.1 µg/mL (≈ 124 µM).

Take `Cc1ccccc1N(CC(=O)N(C)C)S(C)(=O)=O`: the MDR1-MDCK efflux ratio was found to be 2; the intrinsic clearance, human liver microsomes worked out at 6.35 mL/min/kg; the intrinsic clearance, rat liver microsomes was found to be 553 mL/min/kg; the aqueous solubility was found to be 46.7 µg/mL (≈ 173 µM).

Turning to `CCn1cc(NC(=O)c2ccccc2C)cn1`, the MDR1-MDCK efflux ratio was 0.593; the intrinsic clearance, human liver microsomes was 7.18 mL/min/kg; the intrinsic clearance, rat liver microsomes was at most 10.7 mL/min/kg; the aqueous solubility was determined as 32.2 µg/mL (≈ 140 µM).

On to `O/N=C1/CCCc2c1cnc1ncnn21`, for which the MDR1-MDCK efflux ratio came out at 1.67; the intrinsic clearance, human liver microsomes is at most 4.74 mL/min/kg; the intrinsic clearance, rat liver microsomes was at most 10.7 mL/min/kg.

Consider `c1ccc(OCc2nc3cc4ccccc4cc3[nH]2)cc1`, for which the MDR1-MDCK efflux ratio was determined as 0.257 and the aqueous solubility came out at 0.29 µg/mL (≈ 1.06 µM).

`N#Cc1cnc2ccccc2c1OCCO` registered an intrinsic clearance, human liver microsomes of 10.4 mL/min/kg and an intrinsic clearance, rat liver microsomes of 12.7 mL/min/kg.

`CC(C)n1nccc1-c1ncccc1COc1cccc(O)c1C=O` gave an intrinsic clearance, human liver microsomes of 150 mL/min/kg; an intrinsic clearance, rat liver microsomes of 716 mL/min/kg; an aqueous solubility of 37.9 µg/mL (≈ 112 µM).

With `CCN1CCC(Nc2ncnc3c2cnn3C)CC1`, the MDR1-MDCK efflux ratio amounted to 4.01; the intrinsic clearance, human liver microsomes was found to be 63.4 mL/min/kg; the intrinsic clearance, rat liver microsomes was 21.9 mL/min/kg; the aqueous solubility came to 32.5 µg/mL (≈ 125 µM).

For `CN(CC(=O)N(C)C)Cc1cc(C#N)ccc1F`, the MDR1-MDCK efflux ratio was found to be 0.713; the intrinsic clearance, human liver microsomes was at most 4.74 mL/min/kg; the intrinsic clearance, rat liver microsomes came to 38.1 mL/min/kg; the aqueous solubility amounted to 35.4 µg/mL (≈ 142 µM).

For the molecule `COc1ccc(N)c(OCc2ccccc2)c1`, the MDR1-MDCK efflux ratio was found to be 0.705; the intrinsic clearance, human liver microsomes came out at 103 mL/min/kg; the intrinsic clearance, rat liver microsomes turned out to be 707 mL/min/kg.

For the molecule `Cc1csc(N2CCN(Cc3ccc(OCC(F)(F)F)nc3)CC2)n1`, the MDR1-MDCK efflux ratio was determined as 0.655; the intrinsic clearance, human liver microsomes is 22.7 mL/min/kg; the intrinsic clearance, rat liver microsomes is 106 mL/min/kg; the aqueous solubility stood at 31 µg/mL (≈ 83.3 µM).

One may read the aqueous solubility as how much of the substance goes into solution per volume. A low value points to little dissolved substance.

These data come from the Biogen ADME set (Fang et al. 2023).
